Data on 15 compounds can be found in patent US10759785B2, “Compounds” (ENTERPRISE THERAPEUTICS LIMITED, priority 2016, dated 2020).

Structures can show the parent of a compound that is named as a salt.

The experiment concerns the target T1, ENaC (Homo sapiens, UniProt P37088+P51168+P51170).
T1 construct: host or cells: primary human bronchial epithelial cells (HBECs) differentiated at an air-liquid interface
T1 sequence (P37088 1-669): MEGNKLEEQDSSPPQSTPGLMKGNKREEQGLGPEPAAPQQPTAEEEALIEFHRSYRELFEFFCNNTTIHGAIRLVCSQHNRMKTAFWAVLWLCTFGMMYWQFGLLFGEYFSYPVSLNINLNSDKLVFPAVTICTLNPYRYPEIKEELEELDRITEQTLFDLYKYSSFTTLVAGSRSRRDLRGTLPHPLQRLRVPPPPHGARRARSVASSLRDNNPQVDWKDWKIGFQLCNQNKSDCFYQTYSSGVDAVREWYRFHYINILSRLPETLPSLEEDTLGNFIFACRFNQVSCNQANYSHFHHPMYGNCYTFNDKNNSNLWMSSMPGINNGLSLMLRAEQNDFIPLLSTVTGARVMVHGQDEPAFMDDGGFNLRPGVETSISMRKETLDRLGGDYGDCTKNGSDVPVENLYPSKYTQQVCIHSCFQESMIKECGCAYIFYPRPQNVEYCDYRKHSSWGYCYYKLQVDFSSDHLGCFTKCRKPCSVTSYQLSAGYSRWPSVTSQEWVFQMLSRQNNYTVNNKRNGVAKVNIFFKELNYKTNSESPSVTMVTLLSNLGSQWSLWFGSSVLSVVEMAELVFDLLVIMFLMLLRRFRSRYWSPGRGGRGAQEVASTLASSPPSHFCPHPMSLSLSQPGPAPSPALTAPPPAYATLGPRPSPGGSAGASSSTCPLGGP
T1 sequence (P51168 1-640): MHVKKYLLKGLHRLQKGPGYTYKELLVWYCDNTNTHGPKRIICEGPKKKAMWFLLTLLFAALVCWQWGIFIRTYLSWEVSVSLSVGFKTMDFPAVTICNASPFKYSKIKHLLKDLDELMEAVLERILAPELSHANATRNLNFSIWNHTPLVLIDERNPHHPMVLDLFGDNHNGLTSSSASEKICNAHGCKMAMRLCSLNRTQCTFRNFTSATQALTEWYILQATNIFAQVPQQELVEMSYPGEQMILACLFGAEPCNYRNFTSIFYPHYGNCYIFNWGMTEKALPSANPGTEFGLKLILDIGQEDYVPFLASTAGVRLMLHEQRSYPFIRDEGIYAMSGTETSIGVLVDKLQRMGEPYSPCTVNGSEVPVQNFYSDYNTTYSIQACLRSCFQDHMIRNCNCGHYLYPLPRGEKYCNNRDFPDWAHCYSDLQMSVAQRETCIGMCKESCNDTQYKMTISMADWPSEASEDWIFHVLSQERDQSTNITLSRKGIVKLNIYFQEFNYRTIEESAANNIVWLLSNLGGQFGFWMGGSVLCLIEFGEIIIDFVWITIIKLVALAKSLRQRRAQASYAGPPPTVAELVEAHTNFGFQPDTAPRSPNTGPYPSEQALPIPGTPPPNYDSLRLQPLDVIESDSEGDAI
T1 sequence (P51170 1-649): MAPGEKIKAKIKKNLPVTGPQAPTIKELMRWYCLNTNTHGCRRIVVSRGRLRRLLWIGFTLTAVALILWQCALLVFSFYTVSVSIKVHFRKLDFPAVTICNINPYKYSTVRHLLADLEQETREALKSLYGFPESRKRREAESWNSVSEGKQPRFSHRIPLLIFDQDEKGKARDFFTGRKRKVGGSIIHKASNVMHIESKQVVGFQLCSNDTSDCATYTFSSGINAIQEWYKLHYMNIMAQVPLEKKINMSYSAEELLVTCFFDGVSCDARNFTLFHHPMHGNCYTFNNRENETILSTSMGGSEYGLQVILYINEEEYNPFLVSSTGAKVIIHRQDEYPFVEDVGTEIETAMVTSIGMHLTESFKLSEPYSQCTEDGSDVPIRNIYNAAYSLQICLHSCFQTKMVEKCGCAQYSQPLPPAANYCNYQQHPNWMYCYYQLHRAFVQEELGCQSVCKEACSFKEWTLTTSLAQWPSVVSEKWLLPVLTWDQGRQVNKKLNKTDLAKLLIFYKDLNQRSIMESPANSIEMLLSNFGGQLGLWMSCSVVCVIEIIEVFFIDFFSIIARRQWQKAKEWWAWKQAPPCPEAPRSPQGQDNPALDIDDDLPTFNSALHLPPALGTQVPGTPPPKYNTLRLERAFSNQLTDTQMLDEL
Briefly: Short circuit current assay to determine ENaC blocker potency in human bronchial epithelial cells. To be noted: 50% inhibition of total amiloride-sensitive ISC, HBECs, apical addition; read-out: Averages. ENaC Ic50 μm Avg. In kind it is cell-based. As for the experimental part: Example 27—Short Circuit Current Assay to Determine ENaC Blocker Potency in Human Bronchial Epithelial Cells
Human bronchial epithelial cells (HBECs) (Lonza, UK) were cultured using a modification of the method described by Coote et al, (2008). Cells were seeded into plastic T-75 flasks and grown in Bronchial Epithelial Cell Growth Medium (BEGM) (Lonza, UK) supplemented with bovine pituitary extract (52 ng/mL), hydrocortisone (0.5 μg/mL), human recombinant Epidermal Growth Factor (0.5 ng/mL), epinephrine (0.5 ng/mL), transferrin (10 ng/mL), insulin (5 ng/mL), retinoic acid (0.1 ng/mL), triiodothyronine (6.5 ng/mL), gentamycin (50 μg/mL) and amphotericin-B (50 ng/mL). Medium was changed every 48 hours until cells were 90% confluent. Cells were then passaged and seeded (8.25×10^5 cells/insert) onto polycarbonate Snapwell™ inserts (Costar, UK) in differentiation media containing 50% DMEM in BGEM with the same supplements as above but without triiodothyronine and a final retinoic acid concentration of 50 nM (all-trans retinoic acid; Sigma-Aldrich, UK). Cells were maintained submerged for the first 7 days in culture after which time they were exposed to an apical air interface for the remainder of the culture period. From the first day of establishment of an ALI, HBEC were fed with a DMEM:HAMS F-12 (1:1) media containing 2% Ultroser G (Pall BioSepra, France) with gentamycin (50 μg/mL) and amphotericin B (50 ng/mL). Cells were used for short-circuit current assay between days 14-21 after the establishment of the ALI. At all stages of culture, cells were maintained at 37′C in 5% CO2 in an air incubator.
Short-Circuit Current (ISC) Measurements
Snapwell inserts were mounted in Costar Vertical Diffusion Chambers (Costar, UK) and were bathed with continuously gassed Ringer solution (5% CO2 in O2; pH 7.4) maintained at 37° C. containing (in mM): 120 NaCl, 25 NaHCO3, 3.3 KH2PO4, 0.8 K2HPO4, 1.2 CaCl2, 1.2 MgCl2 and 10 glucose. The solution osmolarity was always between 280-300 mOsm/kg H2O for all physiological salt solutions used. Cells were voltage clamped to 0 mV (model EVC4000, WPI). Transepithelial resistance (RT) was measured by applying a 2 mV pulse at 30 s intervals and calculating RT by Ohm's law. Data were recorded using a PowerLab workstation (ADInstruments, UK).
ENaC blocker compounds were added to the apical chamber from a 1000-fold stock solution (prepared in DMSO) to achieve a cumulative concentration response in terms of the inhibition of the basal ISC. At the completion of the concentration response, a supra-maximal concentration of amiloride (10 μM) was added. The concentration of test compound that induced a 50% inhibition of the total amiloride-sensitive ISC (IC50) was calculated using GraphPad Prism v6.05.

Usually IC50 stands for the concentration needed to halve the response being measured.

`CCn1c(CNC(=O)c2nc(Br)cnc2N)[n+](CC)c2ccc(OC)cc21.O=C[O-]` [Example 2, 2-{[(3-amino-6-bromopyrazin-2-yl)formamido]methyl}-1,3-diethyl-6-methoxy-1H-1,3-benzodiazol-3-ium formate]: the IC50 came out at 1 nM.

`CCn1c(CNC(=O)c2nc(Br)cnc2N)[n+](CCO)c2ccc(OC)cc21.O=C[O-]` [Example 3, 2-{[(3-amino-6-bromopyrazin-2-yl)formamido]methyl}-1-ethyl-3-(2-hydroxyethyl)-6-methoxy-1H-1,3-benzodiazol-3-ium formate]: the IC50 was 1 nM.

Take `CCn1c(CNC(=O)c2nc(Br)cnc2N)[n+](CCOCCOCCO)c2ccc(OC)cc21.O=C[O-]` [Example 4, 2-{[(3-amino-6-bromopyrazin-2-yl)formamido]methyl}-1-ethyl-3-{2-[2-(2-hydroxyethoxy)ethoxy]ethyl}-6-methoxy-1H-1,3-benzodiazol-3-ium formate]: the IC50 amounted to 4 nM.

Regarding `CCn1c(CNC(=O)c2nc(Cl)cnc2N)[n+](C)c2ccc(OC)cc21.[I-]` [Example 5, 2-{[(3-amino-6-chloropyrazin-2-yl)formamido]methyl}-1-ethyl-6-methoxy-3-methyl-1H-1,3-benzodiazol-3-ium iodide], the IC50 amounted to 2 nM.

Consider `CCn1c(CNC(=O)c2nc(C)cnc2N)[n+](C)c2ccc(OC)cc21.[I-]` [Example 7, 2-{[(3-amino-6-methylpyrazin-2-yl)formamido]methyl}-1-ethyl-6-methoxy-3-methyl-1H-1,3-benzodiazol-3-ium iodide], for which the IC50 is 4 nM.

`CCc1cnc(N)c(C(=O)NCc2n(CC)c3cc(OC)ccc3[n+]2C)n1.[I-]` [Example 8, 2-{[(3-amino-6-ethylpyrazin-2-yl)formamido]methyl}-1-ethyl-6-methoxy-3-methyl-1H-1,3-benzodiazol-3-ium iodide]: the IC50 stood at 224 nM.

Consider `CCn1c(CNC(=O)c2nc(SC)cnc2N)[n+](C)c2ccc(OC)cc21.[I-]` [Example 9, 2-({[3-amino-6-(methylsulfanyl)pyrazin-2-yl]formamido}methyl)-1-ethyl-6-methoxy-3-methyl-1H-1,3-benzodiazol-3-ium iodide], for which the IC50 was 74 nM.

As for `CCn1c(CNC(=O)c2nc(Br)cnc2N)[n+](C)c2ccc(Cl)cc21.O=CO.O=C[O-]` [Example 11, 2-{[(3-amino-6-bromopyrazin-2-yl)formamido]methyl}-6-chloro-1-ethyl-3-methyl-1H-1,3-benzodiazol-3-ium formic acid formate], the IC50 came to 2 nM.

In the case of `CCn1c(CNC(=O)c2nc(Br)cnc2N)[n+](C)c2ccc(F)cc21.O=C[O-]` [Example 12, 2-{[(3-amino-6-bromopyrazin-2-yl)formamido]methyl}-1-ethyl-6-fluoro-3-methyl-1H-1,3-benzodiazol-3-ium formate], the IC50 was 19 nM.

As to `CCn1c(CNC(=O)c2nc(Br)cnc2N)[n+](C)c2ccc(C(F)(F)F)cc21.[I-]` [Example 13, 2-{[(3-amino-6-bromopyrazin-2-yl)formamido]methyl}-1-ethyl-3-methyl-6-(trifluoromethyl)-1H-1,3-benzodiazol-3-ium iodide], the IC50 stood at 4 nM.

`CCn1c(CNC(=O)c2nc(Br)cnc2N)[n+](C)c2ccc(OC(F)(F)F)cc21.O=C[O-]` [Example 14, 2-{[(3-amino-6-bromopyrazin-2-yl)formamido]methyl}-1-ethyl-3-methyl-6-(trifluoromethoxy)-1H-1,3-benzodiazol-3-ium formate]: the IC50 was 3 nM.

`CCn1c(CNC(=O)c2nc(Br)cnc2N)[n+](CC)c2ccc(C(=O)OC)cc21.[I-]` [Example 15, 2-{[(3-amino-6-bromopyrazin-2-yl)formamido]methyl}-1,3-diethyl-6-(methoxycarbonyl)-1H-1,3-benzodiazol-3-ium iodide]: the IC50 stood at 2 nM.

Consider `CCn1c(CNC(=O)c2nc(Br)cnc2N)[n+](CC)c2ccc(C(=O)N[C@@H]3CCOC3=O)cc21` [Example 17, 2-{[(3-amino-6-bromopyrazin-2-yl)formamido]methyl}-1,3-diethyl-6-{[(3R)-2-oxooxolan-3-yl]carbamoyl}-1H-1,3-benzodiazol-3-ium formate], for which the IC50 stood at 3 nM.

`CCn1c(CNC(=O)c2nc(Br)cnc2N)[n+](CC)c2ccc(C(=O)N[C@H]3CCOC3=O)cc21` [Example 18, 2-{[(3-amino-6-bromopyrazin-2-yl)formamido]methyl}-1,3-diethyl-6-{[(3S)-2-oxooxolan-3-yl]carbamoyl}-1H-1,3-benzodiazol-3-ium formate]: the IC50 was 4 nM.

As for `CCn1c(CNC(=O)c2nc(Br)cnc2N)[n+](Cc2ccccc2)c2ccc(C(F)(F)F)cc21.O=C[O-]` [Example 19, 2-{[(3-Amino-6-bromopyrazin-2-yl)formamido]methyl}-3-benzyl-1-ethyl-6-(trifluoromethyl)-1H-1,3-benzodiazol-3-ium formate], the concentration for half-maximal inhibition (IC50) was found to be 4 nM.
